Drawing on patent publication US20150038545A1, “HYDROXYPHENYL PYRROLE COMPOUNDS CONTAINING AN HYDROXAMIC ACID AS HDAC INHIBITORS AND MEDICINAL APPLICATIONS THEREOF” (UNIVERSIDAD DEL PAÍS VASCO, priority 2011, published 2015), this text covers IC50 for eight compounds.

One may read the IC50 as the concentration that inhibits the measured activity by half.

The assay deals with T1, Human HDAC6 (Homo sapiens, UniProt Q9UBN7).
T1 construct: Full length with N-terminal GST tag, MW=159 kDa; GST (N); purchased BioMol SE-508; host or cells: Sf9 cells, baculovirus
T1 sequence (Q9UBN7 1-1215): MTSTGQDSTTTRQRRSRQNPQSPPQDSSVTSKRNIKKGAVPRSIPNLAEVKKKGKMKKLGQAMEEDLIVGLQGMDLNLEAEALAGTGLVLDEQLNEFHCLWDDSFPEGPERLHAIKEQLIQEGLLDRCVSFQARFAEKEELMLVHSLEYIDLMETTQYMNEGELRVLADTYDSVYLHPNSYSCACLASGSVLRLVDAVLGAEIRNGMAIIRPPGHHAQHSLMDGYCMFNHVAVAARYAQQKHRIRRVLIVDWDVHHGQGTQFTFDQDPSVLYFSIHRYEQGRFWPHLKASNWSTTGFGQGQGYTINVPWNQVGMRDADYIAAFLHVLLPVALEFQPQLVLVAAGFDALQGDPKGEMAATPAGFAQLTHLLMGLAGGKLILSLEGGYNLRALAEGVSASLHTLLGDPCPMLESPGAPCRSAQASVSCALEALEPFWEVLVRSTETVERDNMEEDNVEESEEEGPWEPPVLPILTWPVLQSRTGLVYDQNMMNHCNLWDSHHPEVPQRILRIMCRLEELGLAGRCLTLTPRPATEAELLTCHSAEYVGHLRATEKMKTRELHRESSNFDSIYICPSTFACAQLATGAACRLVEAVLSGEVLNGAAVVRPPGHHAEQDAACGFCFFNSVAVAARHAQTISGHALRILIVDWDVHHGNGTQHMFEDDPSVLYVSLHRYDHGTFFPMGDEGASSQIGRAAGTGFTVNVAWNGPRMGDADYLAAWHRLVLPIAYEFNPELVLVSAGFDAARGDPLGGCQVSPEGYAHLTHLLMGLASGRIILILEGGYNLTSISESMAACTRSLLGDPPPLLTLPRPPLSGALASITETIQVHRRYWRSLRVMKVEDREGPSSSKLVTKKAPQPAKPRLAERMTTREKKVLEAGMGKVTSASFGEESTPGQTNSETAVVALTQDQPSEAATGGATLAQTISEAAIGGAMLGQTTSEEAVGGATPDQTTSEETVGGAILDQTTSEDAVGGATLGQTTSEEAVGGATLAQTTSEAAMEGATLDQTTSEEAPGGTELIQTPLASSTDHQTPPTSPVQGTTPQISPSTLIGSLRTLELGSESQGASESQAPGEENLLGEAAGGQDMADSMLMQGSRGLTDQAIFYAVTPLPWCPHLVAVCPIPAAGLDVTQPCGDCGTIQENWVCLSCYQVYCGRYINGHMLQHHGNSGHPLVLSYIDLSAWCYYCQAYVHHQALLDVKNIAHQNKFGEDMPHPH
Description: In vitro HDAC6 inhibition, fluorogenic peptide assay. The following applies: read-out: IC50 (nM) of enzyme activity HDAC6. The class given is biochemical. The protocol: All HDAC assays were performed using acetylated AMC-labeled peptide substrate: • Substrate for isoforms HDAC1, 2, 3, 4, 5, 6, 7, 9, 10, 11 and HeLa nuclear extract assays: Acetylated fluorogenic peptide from p53 residues 379-382 (RHKKAc) (BioMol. Cat. # KI-104). • Substrate for HDAC8 assays: Acetylated fluorogenic peptide from p53 residues 379-382 (RHKAcKAc) (BioMol. Cat. # KI-178).
Enzymes: • HDAC1 assay: 75 nM Human HDAC1 (GenBank Accession No. NM_004964): Full length with C-terminal GST tag, MW=79.9 kDa, expressed by baculovirus expression system in Sf9 cells (BioMol. Cat. # SE-456). • HDAC2 assay: 5 nM Human HDAC2 (GenBank Accession No. Q92769): Full length with C-terminal His tag, MW=60 kDa, expressed by baculovirus expression system in Sf9 cells (BioMol. Cat. # SE-500). • HDAC3 assay: 2.3 nM Human HDAC3/NcoR2 (GenBank Accession No. NM_003883 for HDAC3, GenBank Accession No.NM_006312 for NcoR2): Complex of human HDAC3, full length with C-terminal His tag, MW=49.7 kDa, and human NCOR2, N-terminal GST tag, MW=39 kDa, co-expressed in baculovirus expression system (BioMol. Cat. # SE-507). • HDAC4 assay: 266 nM Human HDAC4 (GenBank Accession No. NM_006037): Amino acids 627-1085 with N-terminal GST tag, MW=75.2 kDa, expressed in baculovirus expression system (BioMol, Hamburg, Germany). • HDAC5 assay: 588 nM Human HDAC5 (GenBank Accession No. NM_001015053): Full length with Nterminal GST tag, MW=150 kDa, expressed by baculovirus expression system in Sf9 cells (BioMol, Hamburg, Germany). • HDAC6 assay: 13 nM Human HDAC6 (GenBank Accession No. BC069243): Full length with N-terminal GST tag, MW=159 kDa, expressed by baculovirus expression system in Sf9 cells (BioMol. Cat. # SE-508). • HDAC7 assay: 962 nM Human HDAC7 (GenBank Accession No. AY302468): Amino acids 518-end with N-terminal GST tag, MW=78 kDa, expressed in baculovirus expression system (BioMol, Hamburg, Germany). • HDAC8 assay: 119 nM Human HDAC8 (GenBank Accession No. NM018486): Full length, MW=42 kDa, expressed in an E. coli expression system (BioMol. Cat. # SE-145). • HDAC9 assay: 986 nM Human HDAC9 (GenBank Accession No. NM178423): Amino acids 604-1066 with C-terminal His tag, MW=50.7 kDa, expressed in baculovirus expression system (BioMol, Hamburg, Germany). • HDAC10 assay: 781 nM Human HDAC10 (GenBank Accession No. NM_032019): Amino acids 1-631 with Nterminal GST tag, MW=96 kDa, expressed by baculovirus expression system in Sf9 cells (BioMol. Cat. # SE-559). • HDAC11 assay: 781 nM Human HDAC11 (GenBank Accession No. NM_BC009676) with N-terminal GST tag, MW=66 kDa, expressed in baculovirus expression system (BioMol. Cat. # SE-560). • HeLaNuclear Extract assay: 25 ng/μl Nuclear Extract from HeLa Cells: Prepared by high salt extraction of HeLa nuclei (human cervical cancer cell line), this extract is a rich source of HDAC activity (BioMol. Cat. # KI-140).
The reactions were carried out in a 96-well microplate for fluorometry in a 50 μl reaction volume. After the deacetylation reaction, Fluor-de-Lys-Developer (BioMol Cat. # KI-105) was added to each well to digest the deacetylated substrate, thus producing the fluorescent signal. The reaction was allowed to develop for 45 minutes at 30° C. with 5% CO2; then the fluorescent signal was measured with an excitation wavelength at 360 nm and an emission wavelength at 460 nm in a microplate-reading fluorometer (GeminiXS; Molecular Devices, Sunnyvale, Calif.). […] All experiments were performed in triplicate. IC50 was calculated by fitting the experimental data to a dose-response curve. DMSO was used as negative control; Trichostatin A (Biomol Cat. # GR-309) was used as positive control inhibitor.
As to `O=C(CCCCCNC(=O)c1[nH]c(-c2ccc(O)cc2)cc1-c1ccoc1)NO` [Example 5, 3-(3-furyl)-N-(5-(hydroxycarbamoyl)pentyl)-5-(4-hydroxy-phenyl)-1H-pyrrole-2-carboxamide], the IC50 came out at 0.6 nM. The value for `COc1ccc(-c2cc(-c3ccccc3)[nH]c2C(=O)NCCCCCC(=O)NO)cc1` [Compound A, N-[6-(hydroxyamino)-6-oxohexyl]-3-(4-methoxyphenyl)-5-phenyl-1H-pyrrole-2-carboxamide, reference compound] was 20 nM; that for `O=C(CCCCCNC(=O)c1[nH]c(-c2ccsc2)cc1-c1ccc(O)cc1)NO` [Example 3, N-(5-(hydroxycarbamoyl)pentyl)-3-(4-hydroxyphenyl)-5-(3-thienyl)-1H-pyrrole-2-carboxamide] was 12 nM. With `O=C(CCCCCNC(=O)c1[nH]c(-c2ccc(O)cc2)cc1-c1ccsc1)NO` [Example 6, N-(5-(hydroxycarbamoyl)pentyl)-5-(4-hydroxyphenyl)-3-(3-thienyl)-1H-pyrrole-2-carboxamide], the IC50 was determined as 1.6 nM.

On to `O=C(CCCCCNC(=O)c1[nH]c(-c2ccoc2)cc1-c1ccc(O)cc1)NO` [Example 4, 5-(3-furyl)-N-(5-(Hydroxycarbamoyl)pentyl)-3-(4-hydroxy-phenyl)-1H-pyrrole-2-carboxamide], for which the 50% inhibitory concentration (IC50) is 9.3 nM. To `O=C(CCCCCNC(=O)c1[nH]c(-c2ccccc2)cc1-c1ccc(O)cc1)NO` [Example 1, N-(6-(hydroxyamino)-6-oxohexyl)-3-(4-hydroxyphenyl)-5-phenyl-1H-pyrrole-2-carboxamide] belongs 14 nM; to `O=C(CCCCCNC(=O)c1[nH]c(-c2ccc(O)cc2)cc1-c1ccccc1)NO` [Example 2, N-(6-(hydroxyamino)-6-oxohexyl)-5-(4-hydroxyphenyl)-3-phenyl-1H-pyrrole-2-carboxamide], 7.6 nM; to `COc1ccc(-c2cc(-c3ccccc3)c(C(=O)NCCCCCC(=O)NO)[nH]2)cc1` [Compound B, N-[6-(hydroxyamino)-6-oxohexyl]-5-(4-methoxyphenyl)-3-phenyl-1H-pyrrole-2-carboxamide, reference compound], 32 nM.
